Where only a bound is given, the exact number is not on record here.

The source of these data is patent US8399478B2 (Vertex Pharmaceuticals Incorporated, priority 2006, dated 2013).

T1 sequence (P53350 20-338): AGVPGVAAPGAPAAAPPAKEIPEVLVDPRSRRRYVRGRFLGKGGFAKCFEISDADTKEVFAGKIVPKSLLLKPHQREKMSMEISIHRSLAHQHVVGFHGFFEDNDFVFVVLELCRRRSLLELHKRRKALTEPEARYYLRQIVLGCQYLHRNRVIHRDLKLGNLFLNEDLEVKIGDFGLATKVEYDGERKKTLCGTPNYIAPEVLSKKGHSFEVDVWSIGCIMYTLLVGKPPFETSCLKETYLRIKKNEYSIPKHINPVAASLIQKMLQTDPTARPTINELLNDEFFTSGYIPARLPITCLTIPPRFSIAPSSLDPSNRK

This test has as its target T1, Plk1 (Homo sapiens, UniProt P53350).
T1 construct: in the presence of 15 nM Plk1 (A20-K338)
The test is described as follows: Plk1 inhibition assay (radioactive-phosphate incorporation). The class given is biochemical. To be noted: Ki(app) from initial rate data. The protocol:
The compounds of the present invention are evaluated as inhibitors of human PLK kinase using the following assays.
Compounds were screened for their ability to inhibit Plk1 using a radioactive-phosphate incorporation assay. Assays were carried out in a mixture of 25 mM HEPES (pH 7.5), 10 mM MgCl2, and 1 mM DTT. […] An assay stock buffer solution was prepared containing all of the reagents listed above, with the exception of ATP and the test compound of interest. […] The plate was pre-incubated for 10 minutes at 25° C. and the reaction initiated by addition of 8 μL [γ-33 P]ATP (final concentration 50 μM).
The reaction was stopped after 60 minutes by the addition of 100 μL 0.14M phosphoric acid. A multiscreen phosphocellulose filter 96-well plate (Millipore, Cat no. MAPHN0B50) was pretreated with 100 μL 0.2M phosphoric acid prior to the addition of 125 μL of the stopped assay mixture. The plate was washed with 4×200 μL 0.2M phosphoric acid.
After removing mean background values for all of the data points, Ki(app) data were calculated from non-linear regression analysis of the initial rate data using the Prism software package (GraphPad Prism version 3.0cx for Macintosh, GraphPad Software, San Diego, Calif., USA).
Compounds were screened for their ability to inhibit Plk1 using a radioactive-phosphate incorporation assay. Assays were carried out in a mixture of 25 mM HEPES (pH 7.5), 10 mM MgCl2, […], and 2 mM DTT. […] An assay stock buffer solution was prepared containing all of the reagents listed above, with the exception of ATP and the test compound of interest. […] The plate was pre-incubated for 10 minutes at 25° C. and the reaction initiated by addition of 8 μL [γ-33P]ATP (final concentration 100 μM).
The reaction was stopped after 90 minutes by the addition of 100 μL 0.14M phosphoric acid. A multiscreen phosphocellulose filter 96-well plate (Millipore, Cat no. MAPHN0B50) was pretreated with 100 μL 0.2M phosphoric acid prior to the addition of 125 μL of the stopped assay mixture. The plate was washed with 4×200 μL 0.2M phosphoric acid.
Take `CC(Oc1cc(-c2cnc3cccnn23)sc1C(N)=O)c1ccccc1Cl` (stereo not shown) [Compound I-12, 3-(1-(2-chlorophenyl)ethoxy)-5-(imidazo[1,2-b]pyridazin-3-yl)thiophene-2-carboxamide]: the Ki was less than 100 nM. `CC(Oc1cc(-c2nnc3ccc(N)nn23)sc1C(N)=O)c1ccccc1Cl` (stereo not shown) [Compound I-4]: the Ki was greater than 1000 nM.

Turning to `COC(=O)Nc1ccn2c(-c3cc(O[C@@H](C)c4ccccc4Cl)c(C(N)=O)s3)cnc2c1` [Compound I-19, (S)-methyl 3-(5-carbamoyl-4-(1-(2-chlorophenyl)ethoxy)thiophen-2-yl)imidazo[1,2-a]pyridin-7-ylcarbamate], the Ki was less than 100 nM. Then `COC(=O)N(C)c1ccn2c(-c3cc(OC(C)c4ccccc4Cl)c(C(N)=O)s3)cnc2c1` (stereo not shown) [Compound I-18, Methyl 3-(5-carbamoyl-4-(1-(2-chlorophenyl)ethoxy)thiophen-2-yl)imidazo[1,2-a]pyridin-7-yl(methyl)carbamate], with less than 100 nM; and `CCOC(=O)Nc1ccn2c(-c3cc(OC(C)(C)c4ccccc4Cl)c(C(N)=O)s3)cnc2c1` [Compound I-25, Ethyl 3-(5-carbamoyl-4-(2-(2-chlorophenyl)propan-2-yloxy)thiophen-2-yl)imidazo[1,2-a]pyridin-7-ylcarbamate], with less than 100 nM; and `CNC(=O)c1sc(-c2cnc3ccccn23)cc1OC(C)c1ccccc1Cl` (stereo not shown) [Compound I-16, 3-(1-(2-chlorophenyl)ethoxy)-5-(imidazo[1,2-a]pyridin-3-yl)-N-methylthiophene-2-carboxamide], with greater than 1000 nM.

As for `CNC(=O)c1ccn2c(-c3cc(OC(C)c4ccccc4Cl)c(C(N)=O)s3)cnc2c1` (stereo not shown) [Compound I-11, 3-(5-carbamoyl-4-(1-(2-chlorophenyl)ethoxy)thiophen-2-yl)-N-methylimidazo[1,2-a]pyridine-7-carboxamide], the Ki is less than 100 nM. In the case of `CC(Oc1cc(-c2cnc3ccc(C(F)(F)F)cn23)sc1C(N)=O)c1ccccc1Cl` (stereo not shown) [Compound I-10, 3-(1-(2-chlorophenyl)ethoxy)-5-(6-(trifluoromethyl)imidazo[1,2-a]pyridin-3-yl)thiophene-2-carboxamide], the Ki was less than 100 nM. As for `C=Cc1cnc2[nH]cc(-c3cc(OC(C)c4ccccc4Cl)c(C(N)=O)s3)c2c1` (stereo not shown) [Compound I-6, 3-(1-(2-chlorophenyl)ethoxy)-5-(5-vinyl-1H-pyrrolo[2,3-b]pyridin-3-yl)thiophene-2-carboxamide], the figure is less than 100 nM. As for `CCOC(=O)Nc1ccn2c(-c3cc(O[C@@H](C)c4ccccc4Cl)c(C(N)=O)s3)cnc2c1` [Compound I-20, (S)-ethyl 3-(5-carbamoyl-4-(1-(2-chlorophenyl)ethoxy)thiophen-2-yl)imidazo[1,2-a]pyridin-7-ylcarbamate], the figure is less than 100 nM; as for `COc1cnc2[nH]cc(-c3cc(OC(C)c4ccccc4Cl)c(C(N)=O)s3)c2c1` (stereo not shown) [Compound I-3, 3-[1-(2-Chloro-phenyl)-ethoxy]-5-(5-methoxy-1H-pyrrolo[2,3-b]pyridin-3-yl)-thiophene-2-carboxyamide], less than 100 nM; as for `CC(Oc1cc(-c2cnc3cc(N)ccn23)sc1C(N)=O)c1ccccc1Cl` (stereo not shown) [Compound I-15, 5-(7-aminoimidazo[1,2-a]pyridin-3-yl)-3-(1-(2-chlorophenyl)ethoxy)thiophene-2-carboxamide], less than 100 nM. As to `CCOC(=O)N(C)c1ccn2c(-c3cc(OC(C)c4ccccc4Cl)c(C(N)=O)s3)cnc2c1` (stereo not shown) [Compound I-17, Ethyl 3-(5-carbamoyl-4-(1-(2-chlorophenyl)ethoxy)thiophen-2-yl)imidazo[1,2-a]pyridin-7-yl(methyl)carbamate], the Ki is less than 100 nM.

Turning to `CC[C@H](Oc1cc(-c2cnc3cc(NC(=O)OC)ccn23)sc1C(N)=O)c1ccccc1Cl` [Compound I-21, (S)-methyl 3-(5-carbamoyl-4-(1-(2-chlorophenyl)propoxy)thiophen-2-yl)imidazo[1,2-a]pyridin-7-ylcarbamate], the Ki is less than 100 nM. As for `CCOC(=O)Nc1ccn2c(-c3cc(O[C@@H](CC)c4ccccc4Cl)c(C(N)=O)s3)cnc2c1` [Compound I-22, (S)-ethyl 3-(5-carbamoyl-4-(1-(2-chlorophenyl)propoxy)thiophen-2-yl)imidazo[1,2-a]pyridin-7-ylcarbamate], the figure is less than 100 nM; as for `CCOC(=O)Nc1ccn2c(-c3cc(OC(C)c4ccccc4Cl)c(C(N)=O)s3)cnc2c1` (stereo not shown) [Compound I-14, Ethyl 3-(5-carbamoyl-4-(1-(2-chlorophenyl)ethoxy)thiophen-2-yl)imidazo[1,2-a]pyridin-7-ylcarbamate], less than 100 nM.

Regarding `CNC(=O)c1ccc2ncc(-c3cc(OC(C)c4ccccc4Cl)c(C(N)=O)s3)n2c1` (stereo not shown) [Compound I-7, 3-(5-carbamoyl-4-(1-(2-chlorophenyl)ethoxy)thiophen-2-yl)-N-methylimidazo[1,2-a]pyridine-6-carboxamide], the Ki is less than 100 nM.

For the compound `CC(Oc1cc(-c2cnc3[nH]ccc3c2)sc1C(N)=O)c1ccccc1Cl` (stereo not shown) [Compound I-5, 3-[1-(2-Chloro-phenyl)-ethoxy]-5-(1H-pyrrolo[2,3-b]pyridin-5-yl)-thiophene-2-carboxamide], the Ki was 100 to 1000 nM. As to `CC(Oc1cc(-c2cnc3cnccn23)sc1C(N)=O)c1ccccc1Cl` (stereo not shown) [Compound I-9], the Ki was less than 100 nM. Then `CC(Oc1cc(-c2cnc3ccc(F)cn23)sc1C(N)=O)c1ccccc1Cl` (stereo not shown) [Compound I-8, 3-(1-(2-chlorophenyl)ethoxy)-5-(6-fluoroimidazo[1,2-a]pyridin-3-yl)thiophene-2-carboxamide], with less than 100 nM; and `CC(Oc1cc(-c2cnn3ccccc23)sc1C(N)=O)c1ccccc1Cl` (stereo not shown) [Compound I-2, 3-[1-(2-Chloro-phenyl)-ethoxy]-5-pyrazolo[1,5-a]pyridin-3-yl-thiophene-2-carboxamide], with less than 100 nM; and `CC(Oc1cc(-c2cnc3cc(C(F)(F)F)ccn23)sc1C(N)=O)c1ccccc1Cl` (stereo not shown) [Compound I-13, 3-(1-(2-chlorophenyl)ethoxy)-5-(7-(trifluoromethyl)imidazo[1,2-a]pyridin-3-yl)thiophene-2-carboxamide], with less than 100 nM.
